Residues, ends and D or L forms follow the SMILES beside them.
Columns and labels:
[1] = no CD signal in phosphate buffer (PB) pH 7.4, peptide 1 mM, room temperature
Description: Electronic CD curves in the amide region (190–260 nm) were obtained on a Jasco (Tokyo, Japan) model J‐1500 spectropolarimeter. A fused quartz cell of 0.02 cm pathlength (Hellma, Mühlheim, Germany) was used to record spectra in phosphate buffer pH 7.4 (PB), and aqueous sodium dodecyl sulfate (SDS, 30 mM). Spectra were collected at room temperature with peptide concentrations of 1 mM. After baseline subtraction, the values recorded were transformed into [θ]T, the total molar ellipticity (deg × cm^2 × dmol^−1) by means of the JASCO software Spectra Manager.

[2] = Peptide stability in serum; assay type: in vitro ADME; conditions: human serum in HEPES 25 mM pH 7.6, 37°C, over 24 h, HPLC or HPLC–MS, triplicate
Description: The peptides were dissolved in DMSO at a concentration of 5 mg/mL. In Eppendorf tubes, 1 mL of HEPES buffer (25 mM, pH = 7.6) was temperature equilibrated at 37°C before adding 250 μL of human serum and 20 μL of peptide solution. The reaction was monitored for 24 h. At fixed intervals, 100 μL of the solution was withdrawn and added with 200 μL of absolute ethanol. The sample was kept on ice for 15 min and then centrifuged at 16,000 g for 5 min. Finally, the supernatant solution was analyzed by HPLC or HPLC–MS..
A peptide of similar length, not resistant to degradation in serum, was used as a positive test. The peptide sequence is as follows: Tyr‐Ser‐Ser‐Phe‐Leu.
To verify peptide stability in buffer solution, samples containing peptide solutions, buffer, and ethanol were also analyzed. All of the degradation experiments were carried out in triplicate.

S. ent. ATCC 13076 = assay: Kirby–Bauer disk diffusion; assay type: cell-based, Salmonella enterica; conditions: 20 h; for diameter of growth inhibition, S. ent. ATCC 13076: 100 μg peptide per 6 mm disk, Mueller–Hinton pH 7.2–7.4, 37°C, — read as no inhibition
Description: (§1) The antibacterial activity was tested on Gram‐positive ( Staphylococcus aureus ATCC 25923, Streptococcus pyogenes ATCC 19615, Listeria monocytogenes ATCC 7644, Bacillus subtilis ATCC […], Enterococcus faecalis ATCC 29212, E. faecalis ATCC 51299, and some clinical isolates, Streptococcus mitis , Streptococcus oralis , S. pyogenes Group A and Streptococcus Group G), Gram‐negative ( Klebsiella aerogenes ATCC 13048, Salmonella enterica ATCC […], Escherichia coli ATCC 25922, Pseudomonas aeruginosa ATCC 27853, Acinetobacter baumannii ATCC […], Klebsiella pneumoniae ATCC 13883, Proteu mirabilis ATCC 14153) bacterial strains, and Saccharomyces cerevisiae ATCC 9763, according to the standardized disk diffusion Kirby–Bauer method.
(§2) Peptide solutions in DMSO were adsorbed into paper disks (Macherey‐Nagel 615, Germany) of 6 mm in diameter. Every disk was loaded with 100 μg of peptide. The bacteria inoculum was of 0.5 Mc Farland, corresponding to 1–2 x 10^8 CFU/mL. The tests were carried out on Mueller–Hinton culture medium at pH 7.2–7.4 with incubation at 37°C for 20 h. Peptide activity was determined by measuring the diameters (in millimeters) of bacteria/fungi growth inhibition around the paper disks.

[3] = test system: various bacterial strains, both Gram‐positive and Gram‐negative, as well as S. cerevisiae; assay: Kirby–Bauer disk diffusion, whole panel; assay type: cell-based; conditions: 100 μg peptide per disk, 37°C, 20 h, all strains tested
Description: as §1, §2

Compound: CCCCCCCCCCCCCCCC(=O)N[C@@H](Cn1ccnc1)C(=O)N[C@@H](C)C(=O)N[C@H](C)C(=O)N[C@@H](Cn1ccnc1)C(N)=O [P1, Palm‐L‐His*‐Ala‐D‐Ala‐L‐His*‐NH2]
- solubility in water, in words [1]: poor solubility in water

Compound: CCCCCCCCCCCCCCCC(=O)N[C@H](Cn1ccnc1)C(=O)N[C@@H](C)C(=O)N[C@H](C)C(=O)N[C@H](Cn1ccnc1)C(N)=O [P2, Palm‐D‐His*‐Ala‐D‐Ala‐D‐His*‐NH2]
- serum stability, ranking in words [2]: best candidates in terms of serum stability
- solubility in water, in words [1]: poor solubility in water

Compound: CCCCCCCCCCCCCCCC(=O)N[C@@H](Cc1c[nH]cn1)C(=O)N[C@@H](C)C(=O)N[C@H](C)C(=O)N[C@@H](Cc1c[nH]cn1)C(N)=O [P0, Palm‐His‐Ala‐D‐Ala‐His‐NH2] (HELM PEPTIDE1{[CCCCCCCCCCCCCCCC(=O)[*:2]].H.A.[dA].H.[am]}$$$$V2.0)
- diameter of growth inhibition, S. ent. ATCC 13076 (S. ent. ATCC 13076): 10 mm
- activity against Salmonella enterica ATCC 13076, in words (S. ent. ATCC 13076; 100 μg peptide per disk, 37°C): selectively active
- solubility in water, in words [1]: poor solubility in water

Compound: CC(=O)N[C@@H](Cc1c[nH]cn1)C(=O)N[C@@H](C)C(=O)N[C@H](C)C(=O)N[C@@H](Cc1c[nH]cn1)C(=O)NCCCCCCCCCCC(N)=O [P3, Ac‐His‐Ala‐D‐Ala‐His‐Aun‐NH2] (HELM PEPTIDE1{[ac].H.A.[dA].H.[O=C(CCCCCCCCCCN[*:1])[*:2]].[am]}$$$$V2.0)
- antimicrobial activity over the panel, in words [3]: no activity

Compound: CCCCCCCCCCCC(=O)N[C@H](Cn1ccnc1)C(=O)N[C@@H](C)C(=O)N[C@H](C)C(=O)N[C@H](Cn1ccnc1)C(N)=O [P8, Laur‐D‐His*‐Ala‐D‐Ala‐D‐His*‐NH2]
- serum stability, ranking in words [2]: best candidates in terms of serum stability

Compound: CCCCCCCCCCCC(=O)N[C@@H](Cc1c[nH]cn1)C(=O)N[C@@H](C)C(=O)N[C@H](C)C(=O)N[C@@H](Cc1c[nH]cn1)C(N)=O [P6, Laur‐His‐Ala‐D‐Ala‐His‐NH2] (HELM PEPTIDE1{[CCCCCCCCCCCC(=O)[*:2]].H.A.[dA].H.[am]}$$$$V2.0)
- diameter of growth inhibition, S. ent. ATCC 13076 (S. ent. ATCC 13076): 9 mm

— article PMC11997541, “Synthesis and Biological Activity of Ultrashort Antimicrobial Peptides Bearing a Non‐Coded Amino Acid” (Journal of Peptide Science, 2025)
